{"source": "patent US20160199361A1", "about": "“Method of Inducing An Anti-Retroviral Immune Response By Counter-Acting Retro-Virus Induced Anti-Apoptosis” (RUTGERS, THE STATE UNIVERSITY OF NEW JERSEY, priority 2013, published 2016)", "key": {"HIV-1 [1]": {"test_system": "HIV-1", "conditions": "zidovudine monotherapy, reference range; cited from earlier work"}, "[2]": {"test_system": "clinical isolates of HIV-1", "experiment": "HIV-1 p24 and HIV-1 RNA in isolate-infected, long-term replenished primary cell (PBMC) cultures", "type": "cell-based", "conditions": "for p24 relative to controls: within two weeks, PBMCs stably infected with clinical isolates; for number of infective virions produced: use without interruption for up to three weeks, unchanged at least three months after discontinuation", "protocol": "Reagents and cells. Drug-grade deferiprone was kindly provided by Apotex (Toronto, Canada). PBMCs were isolated from the blood of healthy donors, per an IRB-approved protocol, and stimulated overnight with phytohemagglutinin (PHA) and human IL-2. Stimulated cells were pelleted and resuspended for culture at a final concentration of 0.5×10^6 cells/ml in PHA-free RPMI 1640 medium containing 10% fetal calf serum (v/v), 100 units/ml penicillin G, 100 μg/ml streptomycin, 2 mM […], and 3.5 ng/ml human IL-2 (Medium B). Cultures were incubated at 37° C., 5% CO2, and 95% humidity.\nTo obtain clinical isolates of HIV-1, donors were consented to provide blood samples per an IRB-approved protocol. For infection, 5×10^6 uninfected stimulated PBMCs were co-cultured with 10×10^6 PBMCs from one of the HIV-infected donors in Medium B. On day 3, half of the supernatant was removed and replenished with an equal volume of fresh Medium B. On day 7, the medium was likewise replenished and 7.5×10^6 stimulated uninfected PBMCs were added. On days 10, 17, and 24, half of the supernatant was replenished. On days 14, 21, and 28, stimulated uninfected PBMCs were added. Cells were harvested when p24 reached 250 pg/ml, cryopreserved in freezing medium (90% fetal calf serum, 10% dimethyl sulfoxide), and stored in liquid nitrogen as infected PBMC stock. Cell-free supernatants were stored at −80° C.\n(§1) To establish persistent infection of cultured PBMCs, uninfected cells (5×10^6 cells) and infected PBMC stock (0.5×10^6 cells) were co-incubated in a 25 ml culture flask at a final concentration of 0.22×10^6 cells/ml. Cultures were allowed to establish productive infection, defined by medium p24 at or above 250 pg/ml, and deferiprone was added. Cultures were replenished with Medium B and freshly isolated uninfected PBMCs on alternate days. For replacement of Medium B, half of the supernatant was gently exchanged without disturbing the cells, and the drug concentration was adjusted appropriately. For replacement with freshly isolated, stimulated and uninfected PBMCs, half of the cells and supernatant were removed and replaced with 2.5×10^6 cells in the proper volume of Medium B, with adjustment of the drug concentration. Cell-free supernatants were saved for p24 and viral RNA measurements.\n(§2) Detection of p24, viral RNA, and viral DNA. p24 core antigen in the supernatant was quantified by ELISA (Retrotek HIV-1 p24™; ZeptoMetrix Corp.; Buffalo, N.Y.). HIV-1 RNA copy number in the supernatant of PBMC cultures and in plasma of patients enrolled in the exploratory deferiprone trial was determined with a PCR-based and FDA-approved assay (Amplicor HIV-1 Monitor™; Roche Diagnostics Corp.; Indianapolis, Ind.). For clinical samples, the assay was used per the Standard Specimen Processing Procedure (sensitivity limit 400 copies/ml); for cell culture samples, the assay was used in both the Standard Specimen Processing and the UltraSensitive Specimen Processing Procedure (sensitivity limit 50 copies/ml). The Roche Amplicor HIV-1 DNA Test (Roche Diagnostics Corp.; Indianapolis, Ind.) was used for qualitative detection of HIV-1 DNA."}, "HIV-1 DNA": {"test_system": "HIV-1 DNA", "experiment": "Qualitative detection of HIV-1 DNA in infected replenished PBMC cultures", "type": "cell-based", "conditions": "200 μM, 10 days of post-cessation monitoring", "protocol": "as §1\nDetection of p24, viral RNA, and viral DNA. p24 core antigen in the supernatant was quantified by ELISA (Retrotek HIV-1 p24™; ZeptoMetrix Corp.; Buffalo, N.Y.). HIV-1 RNA copy number in the supernatant of PBMC cultures and in plasma of patients enrolled in the exploratory deferiprone trial was determined with a PCR-based and FDA-approved assay (Amplicor HIV-1 Monitor™; Roche Diagnostics Corp.; Indianapolis, Ind.). […]"}, "PBMCs": {"test_system": "PBMCs", "experiment": "Cell viability and apoptotic volume decrease by trypan blue image analysis in replenished PBMC cultures", "type": "cell-based, human", "conditions": "200 μM", "protocol": "Quantitation of cell number, viability, diameter, and apoptotic volume decrease. These parameters were measured in PBMC cultures by computerized image analysis of trypan blue exclusion (VI-CELL™; Beckman Coulter; Fullerton, Calif.)."}, "[3]": {"test_system": "PBMCs acutely infected with HIV-1", "experiment": "Apoptotic DNA fragmentation (TUNEL) in non-replenished short-term PBMC cultures infected with HIV-1 isolate", "type": "cell-based, human", "protocol": "(§3) Reagents and cells. Drug-grade deferiprone was kindly provided by Apotex (Toronto, Canada). PBMCs were isolated from the blood of healthy donors, per an IRB-approved protocol, and stimulated overnight with phytohemagglutinin (PHA) and human IL-2. […] Cultures were incubated at 37° C., 5% CO2, and 95% humidity. DNA fragmentation assay. Apoptotic DNA fragmentation was quantified flow-cytometrically, using a TUNEL (terminal deoxynucleotide transferase dUTP nick end-labeling) assay (APO-BRDU™; Phoenix Flow Systems; San Diego, Calif.)."}, "infected T-cell lines": {"test_system": "infected T-cell lines", "experiment": "Suppression of HIV-1 generation and selective induction of apoptosis in infected T-cell lines", "type": "cell-based"}, "HIV-1 [4]": {"test_system": "HIV-1", "experiment": "Exploratory pilot trial: plasma HIV-1 RNA in HIV-1-infected treatment-naive persons", "type": "in vivo, human", "protocol": "as §2\nTwo oral dose levels of deferiprone were tested, 33 mg/kg (33 mg/kg QD on days 1 and 7, and 33 mg/kg TID on days 2-6 [seven asymptomatic HIV-infected antiretroviral-naive persons]) and 50 mg/kg (50 mg/kg QD on days 1 and 7, and 50 mg/kg TID on days 2-6 [six healthy volunteers and seven asymptomatic HIV-infected antiretroviral-naive persons, four of whom completed the treatment period]).\nEach cohort was unblinded only at study completion. […] Secondary parameters included pharmacokinetic variables (e.g. peak serum concentration) in serum, drawn after initial drug ingestion at fixed hours (0, 0.5, 1, 1.5, 2, 3, 4, 6, 9, 12). […] Viral load was measured as described above.\nFor the cell culture experiments with deferiprone and the exploratory clinical trial, descriptive statistics were generated using Microsoft Excel 2011. In the exploratory trial, outcome analysis was performed to assess the intercohort and intraindividual virological response to deferiprone, using Student's t-test for log10-based analysis of the time-specified differentials (Δ log) between the cohort identified medians (±standard error of the mean [SEM]) generated from the multiple measurements per subject on treatment minus before treatment. (‘response’ in the first stage of the protocol) and off treatment minus before treatment (‘rebound’ in the second stage of the treatment). P<0.05 was used as criterion for statistical significance. […] To assess the in vivo antiretroviral activity of deferiprone in a hypothesis-independent manner, the Δ log of the HIV-1 RNA levels achieved in the first and the second stage of the protocol was analyzed after post-treatment segregation into ‘responders’ and ‘non-responders’ per the discontinuation trial design (DTD)."}, "uninfected PBMCs": {"test_system": "uninfected PBMCs", "experiment": "Apoptotic DNA fragmentation (TUNEL) in non-replenished short-term uninfected PBMC cultures", "type": "cell-based, human", "conditions": "30 μM, 144 hours", "protocol": "as §3"}}, "note": "“Also recorded” adds a separate entry of the source."}
{"compound": "Cc1cn([C@H]2C[C@H](N=[N+]=[N-])[C@@H](CO)O2)c(=O)[nH]c1=O", "note": "[zidovudine]", "values": [{"measurement": "viral load decline on monotherapy", "setting": "HIV-1 [1]", "value": "−0.3", "unit": "log10"}]}
{"compound": "Cc1c(O)c(=O)ccn1C", "note": "[deferiprone, 3-hydroxy-1,2-dimethylpyridin-4(1H)-one]", "values": [{"measurement": "rate of viral RNA rebound after cessation of drug", "setting": "[2]; 100 μM, 35 days of treatment", "value": "+0.24 log10/ml/day"}, {"measurement": "decrease of viral copy number versus set-point of controls", "setting": "[2]; 100 μM, infected replenished cultures, weeks of treatment", "value": "decreased by just one log"}, {"measurement": "p24 relative to controls", "setting": "[2]; 100 μM", "value": "≤ 10 % of controls"}, {"measurement": "viral RNA nadir", "setting": "[2]; 200 μM", "value": "10^3 copies/ml"}, {"measurement": "reduction of viral RNA copies versus infected untreated controls", "setting": "[2]; 200 μM, 16-day treated cultures", "value": "reduced by three orders of magnitude"}, {"measurement": "re-emergence of productive infection off-treatment", "setting": "[2]; 200 μM, after 90 days off-treatment", "value": "no re-emergence of productive infection"}, {"measurement": "decline of viral copy number", "setting": "[2]; 200 μM, continuous treatment", "value": "falling by three logs"}, {"measurement": "time to reach nadir of <10^3 copies/ml", "setting": "[2]; 200 μM, depending on isolate - primary cell combination", "value": "2-4 weeks"}, {"measurement": "HIV-1 RNA rebound after drug discontinuation", "setting": "[2]; 200 μM, off drug, replenished cultures", "value": "viral RNA rebound is absent off drug; also recorded: did not rebound"}, {"measurement": "viral RNA after continued observed decline", "setting": "[2]; 200 μM, post-treatment", "value": "< 10^2 copies/ml"}, {"measurement": "p24 relative to controls", "setting": "[2]; 200 μM", "value": "≤ 10 % of controls"}, {"measurement": "on-drug rate of viral RNA decline", "setting": "[2]; 200 μM, appears to continue up to five days post cessation", "value": "−0.04", "unit": "log10/ml/day"}, {"measurement": "time for post-treatment rebound to reacquire set-point", "setting": "[2]; after cessation of 100 μM", "value": "≤ 72", "unit": "h"}, {"measurement": "p24 expression and viral copy number", "setting": "[2]; below 100 μM", "value": "marginally affected"}, {"measurement": "viral breakthrough", "setting": "[2]; month-long monotherapy", "value": "did not elicit viral breakthrough"}, {"measurement": "number of infective virions produced", "setting": "[2]", "value": "undetectable levels"}, {"measurement": "HIV-1 DNA in post-treatment cultures", "setting": "HIV-1 DNA", "value": "either negative or at the lower limit of detectability"}, {"measurement": "apoptotic volume decrease", "setting": "PBMCs", "value": "not detectable"}, {"measurement": "viability (trypan blue)", "setting": "PBMCs", "value": "≥ 95", "unit": "%"}, {"measurement": "induced apoptosis in infected versus uninfected PBMCs", "setting": "[3]; 200 μM, non-replenished short-term cultures", "value": "significantly (P≦0.009) exceeded that in uninfected PBMCs"}, {"measurement": "concentration required for effective suppression of HIV-1 generation and selective induction of apoptosis", "setting": "infected T-cell lines", "value": "at least 150 μM"}, {"measurement": "Δ log10 HIV-1 RNA, acute decline coinciding with peak concentrations ≧150 μM", "setting": "HIV-1 [4]; 50 mg/kg po TID group", "value": "−0.44±0.1", "unit": "log10"}, {"measurement": "Δ log10 HIV-1 RNA D7 vs. D1, subjects with acute viral load decline", "setting": "HIV-1 [4]; Group A, the 6 of 7 with decline", "value": "−0.42±0.05", "unit": "log10"}, {"measurement": "subjects with acute viral load decline", "setting": "HIV-1 [4]; Group A, ≧150 μM in serum", "value": "6 of 7"}, {"measurement": "Δ log10 HIV-1 RNA D7 vs. D1", "setting": "HIV-1 [4]; Group A, ≧150 μM in serum, 33 or 50 mg/kg po TID, N=7", "value": "−0.40±0.1", "unit": "log10"}, {"measurement": "Δ log10 HIV-1 RNA D7 vs. D1", "setting": "HIV-1 [4]; Group B, did not achieve ≧150 μM in serum, deferiprone N=4", "value": "+0.17±0.07 log10"}, {"measurement": "difference responders vs non-responders, Δ log10 D7 vs. D1", "setting": "HIV-1 [4]; end of first stage, 6 responders, 5 non-responders", "value": 0.64, "unit": "log10"}, {"measurement": "difference responders vs non-responders, Δ log D53 vs. D1", "setting": "HIV-1 [4]; end of second stage, 5 responders, 5 non-responders, off drug", "value": 0.54, "unit": "log"}, {"measurement": "duration of persistent off-drug suppression as multiple of drug half-life", "setting": "HIV-1 [4]; off-drug, human", "value": "≥ 200", "unit": "times the half-life"}, {"measurement": "antiretrovirally effective in vivo threshold (serum concentration)", "setting": "HIV-1 [4]; serum, 11 treated subjects, P=0.0152 Fisher's Exact test", "value": "≥ 150", "unit": "µM"}, {"measurement": "acute responders that did not reacquire viral load baseline", "setting": "HIV-1 [4]; seven weeks post-treatment after one-week pulse", "value": 80, "unit": "%"}]}
{"compound": "Cc1cc(C2CCCCC2)n(O)c(=O)c1", "note": "[ciclopirox]", "values": [{"measurement": "number of infective virions produced", "setting": "[2]", "value": "undetectable levels"}, {"measurement": "cells with fragmented DNA (apoptotic), uninfected treated cultures", "setting": "uninfected PBMCs", "value": "24.1±3.2", "unit": "%"}, {"measurement": "cells with fragmented DNA (apoptotic), infected treated cultures", "setting": "[3]; 30 μM, 144 hours after inoculation", "value": "71.8±8.8", "unit": "%"}]}
